Measured values as given in the supplement of paper PMC6723410.

System: GUMC-403
Test: viability at highest tested concentration (max response) relative to DMSO (% of DMSO control); higher = less cytotoxic
Conditions: library / dose series: MIPE library, 11-point 1:3 dilution, 48 h
Method in brief: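 Patient-derived GUMC-403 papilloma cells grown by conditional reprogramming were plated at 700/well in 5 μL F + Y medium in 1536-well plates and incubated overnight at 37 °C. They then received 23 nL of MIPE 4.0 compounds by pin tool (11-point 1:3 series) for 48 h. CellTiter-Glo luminescence was read on a ViewLux and normalised with DMSO wells as 100% and empty wells as 0%. The value is viability at the highest tested concentration relative to DMSO control.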

`CCOC(=O)\C1=C(/C)N\C2=C(C1C3=CC=C(C=C3)C4=CC=CC=C4)\C(=O)CC(C)(C)C2` (stereo not drawn) showed a viability (top concentration 46.1 µM) of 82.6.
With `O=[N+]([O-])c1ncc[nH]1` the viability (top concentration 46.1 µM) was 82.9.
With `C[C@@H]1CC[C@@]2(CC[C@]3(C)\C(=C/C[C@@H]4[C@@]5(C)CC[C@H](O)C(C)(C)[C@@H]5CC[C@@]34C)[C@@H]2[C@H]1C)C(O)=O` the viability (top concentration 92.2 µM) was 95.2.
Compound `CC(C)(C)C1=CC(=C(NC(=O)C/2=C/NC3=C(C=CC=C3)C2=O)C=C1O)C(C)(C)C` has a viability (top concentration 46.1 µM) of 114.
With `CC1(C)C(=O)N(CCN2CCC(C(=O)c3ccc(F)cc3)CC2)c2ccccc21` the viability (top concentration 46.1 µM) was 71.3.
In the case of `CN(C)CC[C@H](CSc1ccccc1)Nc1ccc([S+](=O)([O-])NC(=O)c2ccc(N3CCN(Cc4ccccc4-c4ccc(Cl)cc4)CC3)cc2)cc1[N+](=O)[O-]`, the viability (top concentration 46.1 µM) is reported as 114.
With `COc1ccc(CCC(=O)c2c(O)cc(O[C@@H]3O[C@H](CO)[C@@H](O)[C@H](O)[C@H]3O[C@@H]3O[C@@H](C)[C@H](O)[C@@H](O)[C@H]3O)cc2O)cc1O` the viability (top concentration 46.1 µM) was 57.9.
`COc1cccc2c1C(=O)c1c(O)c3c(c(O)c1C2=O)C[C@@](O)(C(=O)CO)C[C@@H]3O[C@H]1C[C@H](N)[C@H](O[C@H]2CCCCO2)[C@H](C)O1` was tested, and the viability (top concentration 46.1 µM) was 57.9.
Work on `COC1=CC(=CC=C1)C2=CC=C(NC(=O)/C3=C(/CCC3)C(O)=O)C(=C2)F` yielded a viability (top concentration 46.1 µM) of 99.8.
For `O=C(NCC1CN(c2ccc(N3CCOCC3=O)cc2)C(=O)O1)c1ccc(Cl)s1` (stereo not drawn), the viability (top concentration 46.1 µM) was 127.
For `CC(=O)O[C@H]1C[C@@H]2CC[C@@H]3[C@H](CC[C@@]4(C)[C@H]3C[C@H]([N+]3(C)CCCCC3)[C@@H]4OC(C)=O)[C@@]2(C)C[C@@H]1[N+]1(C)CCCCC1`, the viability (top concentration 46.1 µM) was 122.
In the case of `COC(=O)C1C2CC3c4[nH]c5cc(OC)ccc5c4CCN3CC2CC(OC(=O)c2cc(OC)c(OC)c(OC)c2)C1OC` (stereo not drawn), the viability (top concentration 46.1 µM) is reported as 101.
For `Clc1ccc2ncc(-c3cccc(NC4CNC4)n3)n2c1`, the viability (top concentration 46.1 µM) was 124.
`O=C1c2cccc(O)c2C(=O)c2c(O)cc(CO)cc21` was tested, and the viability (top concentration 46.1 µM) was 92.9.
In the case of `C=C[C@H]1CN2CCC1C[C@H]2[C@H](O)c1ccnc2ccc(OC)cc12` (stereo partly drawn), the viability (top concentration 46.1 µM) is reported as 98.4.
In the case of `C#Cc1cccc(Nc2ncnc3cc(OC)c(OCCCCCCC(=O)NO)cc23)c1`, the viability (top concentration 46.1 µM) is reported as 33.9.
In the case of `O=[N+]([O-])c1ccc(Nc2ccccc2-c2ccccc2)c2nonc12`, the viability (top concentration 46.1 µM) is reported as 106.
Work on `CC(=O)O[C@H]1C(=O)[C@]2(C)[C@@H](O)C[C@H]3OC[C@@]3(OC(C)=O)C2[C@H](OC(=O)C4=CC=CC=C4)[C@]5(O)C[C@H](OC(=O)[C@H](O)[C@@H](NC(=O)C6=CC=CC=C6)C7=CC=CC=C7)\C(=C1/C5(C)C)C` (stereo partly drawn) yielded a viability (top concentration 46.1 µM) of 97.8.
`CCC[C@H]1C[C@H](C(=O)N[C@@H]([C@@H]2O[C@@H](SC)[C@@H](O)[C@@H](O)[C@H]2O)[C@H](C)Cl)N(C)C1` gave a viability (top concentration 46.1 µM) of 118.
`CCOC(=O)[C@@H](N)CCC(=O)N[C@@H](CSCc1ccccc1)C(=O)N[C@@H](C(=O)OCC)c1ccccc1` gave a viability (top concentration 46.1 µM) of 95.5.
In the case of `COC(=O)N1CCN(Cc2cccc(NC(=O)Nc3ccc(C)nc3)c2F)CC1`, the viability (top concentration 46.1 µM) is reported as 105.
Compound `CCCCNc1cc(C(=O)O)cc([S+](N)(=O)[O-])c1Oc1ccccc1` has a viability (top concentration 46.1 µM) of 138.
`Clc1cccc(-n2nnnc2NCc2ccccc2Oc2ccccn2)c1Cl` showed a viability (top concentration 46.1 µM) of 116.
`C=CC(=O)Nc1cc2c(Nc3ccc(F)c(Cl)c3)ncnc2cc1OCCCN1CCOCC1` showed a viability (top concentration 46.1 µM) of 81.6.
Compound `Nc1ncnc2c1c(-c1cccc(OCc3ccccc3)c1)cn2C1CC(CN2CCC2)C1` (stereo not drawn) has a viability (top concentration 46.1 µM) of 98.4.
With `Nc1ncnc2c1c(-c1cccc(OCc3ccccc3)c1)cn2C1CC(CN2CCCC2)C1` (stereo not drawn) the viability (top concentration 46.1 µM) was 78.1.
`CN1C(=O)\C(=C/C(=C1/NC2=C(F)C=C(I)C=C2)C(=O)NOCCO)C` gave a viability (top concentration 46.1 µM) of 80.2.
`Cc1nccn1CC1CCc2c(c3ccccc3n2C)C1=O` (stereo not drawn) gave a viability (top concentration 46.1 µM) of 103.
In the case of `C=CC(=O)Nc1cc(NC(=O)c2ccc(C)c(NC(=O)c3ccno3)c2)cc(C(F)(F)F)c1`, the viability (top concentration 46.1 µM) is reported as 106.
`C[S+](=O)([O-])c1ccc([C@@H](O)[C@@H](CO)NC(=O)C(Cl)Cl)cc1` showed a viability (top concentration 46.1 µM) of 126.
`Cc1ccc(/C=N/NC(=O)c2ccccc2Oc2ccccc2)o1` showed a viability (top concentration 46.1 µM) of 92.
`CC(=O)Oc1ccccc1C(=O)O` was tested, and the viability (top concentration 46.1 µM) was 118.
Compound `O=[N+]([O-])c1cnc(Sc2nnc(O)n2-c2ccc3c(c2)OCCO3)s1` has a viability (top concentration 46.1 µM) of 91.3.
Compound `CC(C)(Sc1ccc(CCN(CCCCC2CCCCC2)C(=O)NC2CCCCC2)cc1)C(=O)O` has a viability (top concentration 46.1 µM) of 109.
With `N=C(N)NC(=O)c1nc(Cl)c(N)nc1N` the viability (top concentration 46.1 µM) was 125.
Work on `Cc1nnc(N[S+](=O)([O-])c2ccc(N)cc2)s1` yielded a viability (top concentration 46.1 µM) of 113.
In the case of `COc1nc(C)cnc1N[S+](=O)([O-])c1cccnc1-c1ccc(-c2nnco2)cc1`, the viability (top concentration 46.1 µM) is reported as 138.
`Cc1cccc(-c2nn(C(=S)Nc3ccccc3)cc2-c2ccnc3ccccc23)n1` showed a viability (top concentration 46.1 µM) of 135.
Work on `CC(=O)O[C@@]1(CC[C@H]2[C@@H]3\C=C(C)/C4=C/C(=O)CC[C@]4(C)[C@H]3CC[C@]12C)C(C)=O` yielded a viability (top concentration 46.1 µM) of 127.
`NC(=O)c1cccc(-c2cccc(OC(=O)NC3CCCCC3)c2)c1` was tested, and the viability (top concentration 46.1 µM) was 104.
In the case of `CC1(C)CCC(=C(CN2CCN(CC2)C3=CC=C(C=C3)C(=O)N[S+]([O-])(=O)C4=CC(=C(N[C@H](CCN5CCOCC5)CSC6=CC=CC=C6)C=C4)[S+]([O-])(=O)C(F)(F)F)\C1)/C7=CC=C(Cl)C=C7`, the viability (top concentration 46.1 µM) is reported as 97.
`CC1=CC=CC=C1N2\C(=N/C3=C(C(=CC=C3)C)C2=O)C[N]4C=NC5=C4N=CN=C5N` showed a viability (top concentration 46.1 µM) of 24.1.
With `OC1=CC=C(C=C1)\C2=C\OC3=C(C=CC(=C3)O)C2=O` the viability (top concentration 46.1 µM) was 133.
Compound `Cc1c(C)c2c(c(C)c1O)CCC(C)(COc1ccc(CC3SC(=O)NC3=O)cc1)O2` (stereo not drawn) has a viability (top concentration 46.1 µM) of 82.
For `C[C@]12CC[C@H]3[C@@H](CCC/4=C/C(=O)CC[C@]34C)[C@@H]1CC[C@@H]2O`, the viability (top concentration 46.1 µM) was 112.
In the case of `OC(CCN1CCCCC1)(C2CC\3CC2\C=C3)C4=CC=CC=C4` (stereo not drawn), the viability (top concentration 46.1 µM) is reported as 136.
`F\C1=C\NC(=O)NC1=O` was tested, and the viability (top concentration 46.1 µM) was 109.
Compound `CCN(CC)CC#CCOC(=O)C(O)(c1ccccc1)C1CCCCC1` (stereo not drawn) has a viability (top concentration 46.1 µM) of 127.
Compound `CC[C@@H]([C@H](C)O)n1ncn(-c2ccc(N3CCN(c4ccc(OCC5CO[C@@](Cn6cncn6)(c6ccc(F)cc6F)C5)cc4)CC3)cc2)c1=O` (stereo partly drawn) has a viability (top concentration 46.1 µM) of 101.
In the case of `Cc1cc(-c2ccc(CC(=O)Nc3ccc(-c4cccnc4)cc3)cc2)ccn1`, the viability (top concentration 46.1 µM) is reported as 118.
For `O=C(Nc1cc2cc[nH]c2cn1)c1ccccc1`, the viability (top concentration 46.1 µM) was 55.2.
`COc1cc2c(cc1OC)[C@@H]1Cc3ccc(OC)c(OC)c3CN1CC2` showed a viability (top concentration 46.1 µM) of 115.
`O=C(O)CCc1ccc(NCc2cccc(Oc3ccccc3)c2)cc1` showed a viability (top concentration 46.1 µM) of 122.
With `Cn1cc(C[C@@H](N)C(=O)O)c2ccccc21` the viability (top concentration 23 µM) was 111.
For `OC1=CC=C(C=C1)\C2=C\OC3=C(C(=CC(=C3)O)O)C2=O`, the viability (top concentration 46.1 µM) was 77.6.
Work on `COCCCN1CCC(NC(=O)c2cc(Cl)c(N)c3c2OCC3)CC1` yielded a viability (top concentration 46.1 µM) of 76.9.
`COc1cc(OC2CCN(C)CC2)ccc1Nc1ncc2c(n1)n(C1CCCC1)c(=O)n2C` was tested, and the viability (top concentration 46.1 µM) was 60.4.
`COc1cc2c(Nc3ccc(Cl)c(Cl)c3F)ncnc2cc1OCC1C[C@@H]2CN(C)C[C@@H]2C1` (stereo partly drawn) was tested, and the viability (top concentration 46.1 µM) was 12.5.
Work on `CC[C@H]1CN2CCc3cc(OC)c(OC)cc3[C@@H]2C[C@@H]1C[C@H]1NCCc2cc(OC)c(OC)cc21` yielded a viability (top concentration 46.1 µM) of 79.9.
For `CC(C(C)N1CC(=O)NC(=O)C1)N1CC(=O)NC(=O)C1` (stereo not drawn), the viability (top concentration 46.1 µM) was 109.
For `COc1cc2ncn(-c3cc(OCc4ccccc4[S+](C)(=O)[O-])c(C#N)s3)c2cc1OC`, the viability (top concentration 46.1 µM) was 81.5.
Work on `OC(=O)C/1=C/C(=O)NC(=O)N1` yielded a viability (top concentration 46.1 µM) of 122.
`O=C1N(c2ccccc2)c2ccccc2C1(Cc1ccncc1)Cc1ccncc1` showed a viability (top concentration 46.1 µM) of 108.
`C[C@H]([C@H](O)CCC(C)(C)O)[C@H]1CC[C@@]2(O)C/3=C/C(=O)[C@@H]4C[C@@H](O)[C@@H](O)C[C@]4(C)[C@H]3CC[C@]12C` showed a viability (top concentration 46.1 µM) of 120.
In the case of `COc1cc2ncnc(Nc3cccc(Br)c3)c2cc1OC`, the viability (top concentration 46.1 µM) is reported as 81.6.
For `CC(C)(C)NC(=O)[C@H]1CC[C@H]2[C@@H]3CC[C@H]4NC(=O)\C=C/[C@]4(C)[C@H]3CC[C@]12C`, the viability (top concentration 46.1 µM) was 66.2.
With `C/C=C(\C)C(=O)N[C@@H](c1ccccc1)[C@@H](O)C(=O)O[C@H]1C[C@@]2(O)[C@@H](OC(=O)c3ccccc3)[C@@H]3[C@]4(OC(C)=O)CO[C@@H]4C[C@H](O)[C@@]3(C)C(=O)[C@H](OC(C)=O)C(=C1C)C2(C)C` the viability (top concentration 46.1 µM) was 111.
With `C[C@@H](Oc1cc(-c2cnn(C3CCNCC3)c2)cnc1N)c1c(Cl)ccc(F)c1Cl` the viability (top concentration 46.1 µM) was 76.6.
Work on `COC(=O)C/1=C(C)/N/C(=C(\C1C2=CC(=CC=C2)[N+]([O-])=O)C(=O)OCCCN3CCC(CC3)(C4=CC=CC=C4)C5=CC=CC=C5)C` (stereo not drawn) yielded a viability (top concentration 46.1 µM) of 128.
With `COc1cc([C@@H]2c3cc4c(cc3[C@H](O)[C@H]3COC(=O)[C@H]23)OCO4)cc(OC)c1OC` the viability (top concentration 46.1 µM) was 115.
Compound `C=C1/C(=C\C=C2/CCC[C@]3(C)[C@@H]([C@H](C)/C=C/[C@H](C)C(C)C)CC[C@@H]23)C[C@@H](O)C[C@@H]1O` has a viability (top concentration 46.1 µM) of 150.
For `C=CCc1cccc(/C=N/NC(=O)CN2CCN(Cc3ccccc3)CC2)c1O`, the viability (top concentration 46.1 µM) was 73.5.
Compound `NC(=O)c1ncn([C@@H]2O[C@H](CO)[C@@H](O)[C@H]2O)n1` has a viability (top concentration 46.1 µM) of 99.6.
`CC(=O)[C@H]1CC[C@H]2[C@@H]3C/C=C4/C[C@@H](O)CC[C@]4(C)[C@H]3CC[C@]12C` was tested, and the viability (top concentration 46.1 µM) was 115.
`CC[C@@H]1C(=O)N(C)c2cnc(Nc3ccc(C(=O)NC4CCN(C)CC4)cc3OC)nc2N1C1CCCC1` showed a viability (top concentration 46.1 µM) of 41.8.
With `COc1ccc([S+](=O)([O-])Nc2cccnc2Nc2ccc(O)cc2)cc1` the viability (top concentration 46.1 µM) was 99.9.
Compound `C#Cc1cccc(Nc2ncnc3cc(OCCOC)c(OCCOC)cc23)c1` has a viability (top concentration 46.1 µM) of 47.6.
With `O=C(Nc1ncc(SCCN2CCCC2)s1)[C@]1(c2ccc([S+](=O)([O-])C3CC3)cc2)C[C@H]1C1CCCCC1` the viability (top concentration 46.1 µM) was 108.
